# Measured values as given in patent US7572612B2, “Method of production of para-hydroxycinnamic acid using a thermostable TAL enzyme” (E.I. du Pont de Nemours and Company, priority 2006, dated 2009).
# Tests used:
# [1] = tested on: Phanerochaete chrysosporium tyrosine ammonia lyase PcTAL (PAL/TAL enzyme), wild type, SEQ ID NO:1; experiment: PcTAL substrate test with histidine; format: biochemical; conditions: 20 mM histidine, 100 mM diethanol amime at pH 9, 1.3 mM 2-mercaptoethanol, 0.1 mM MnCl2
# Experimental: The increase of TAL and PAL activities with increasing substrate concentrations followed the typical Michaelis-Menton equation. The kcat of the enzyme was 1.3 S^−1 for tyrosine, and 3.3 S^−1 for phenylalanine. The KM was 44 μM for tyrosine and 161 μM for phenylalanine. The kcat/KM value was slightly higher for tyrosine (3.0 M^−1 S^−1) than for phenylalanine (2.1 M^−1 S^−1), indicating the enzyme's slight preference for tyrosine (PAL/TAL ratio of 0.7). […] The substrate specificity of the PcTAL enzyme is therefore similar to other known fungal PAL/TAL enzymes, such as that from R. glutinis, with dual specificity for tyrosine and phenylalanine.
# [2] = tested on: Phanerochaete chrysosporium tyrosine ammonia lyase PcTAL (PAL/TAL enzyme), wild type, SEQ ID NO:1; experiment: Kinetic parameters of the PcTAL enzyme for tyrosine and phenylalanine; format: biochemical; conditions: 45° C., 100 mM CAPS, pH 9.5 buffer
# Experimental: The PAL and TAL activities of the purified enzymes were measured using a spectrophotometer according to Abell et al., [Phenylalanine Ammonia-lyase from Yeast Rhodotorula glutinis,” Methods Enzymol. 142:242-248 (1987)]. The assay for PAL determination was initiated by addition of the enzyme to a 50 mM Tris-HCl (pH 8.5) buffer solution containing 1.0 mM L-phenylalanine. The reaction was followed by monitoring the CA production at λ290 nm and the activity was calculated using a molar extinction coefficient of […]. The assay was run over a 5 min period using an amount of enzyme that produced absorbance changes in the range of 0.0075 to 0.018/min. One unit of activity indicated deamination of 1.0 micro-mol of phenylalanine to CA per minute. The TAL activity was similarly measured using tyrosine, instead of phenylalanine, in the reaction solution. The absorbance of the pHCA produced was followed at λ315 nm and the activity was determined using an extinction coefficient of 10,000 cm^−1 for pHCA. One unit of activity indicated deamination of 1.0 micro-mol of tyrosine to pHCA per minute. Some TAL assays were performed at pH 9.5 or 10.0 in 100 mM CAPS buffer. The TAL activity was measured as described above, except that the extinction coefficient was 16,800 cm^−1 for pHCA.
# The TAL assay was typically performed in a 1.5 ml capacity UV grade disposable cuvette (VWR) at 35° C. using a Perkin-Elmer Lamba20 spectrophotometer (Wellesley, Mass.). The reaction (1.0 ml volume) contained the soluble protein sample, 100 mM CAPS pH10 buffer and 10 mM tyrosine and was monitored for 3 minutes at I315 nm. The TAL activity (U/g) was calculated as follows: Total TAL activity (mM/min)=D315 nm/min×[…] divided by pHCA extinction coefficient (M^−1 cm^−1)=D315 nm/min×[…] divided by 16,800 (M^−1 cm^−1). TAL specific activity (U/g)=total TAL activity (mM/min) divided by the amount of protein used in the assay. Gel Electrophoresis
# Six grams of cell pellet, from the 10 liter fermentation of DPD5154 was resuspended in 6.0 mL Buffer A (10 mM Tris-HCl, pH 8.0, 200 μM EDTA) containing one EDTA-free protease inhibitor tablet (Roche Biosciences, Palo Alto, Calif.), 1.0 μg/ml Leupeptin, 1.0 μg/ml Pepstatin, 40 μg/ml Bestatin 5.0 mM CA. Cells were lysed by two passes through a French Pressure Cell at 20,000 PSI, and clarified by centrifugation at 12,000×g for 20 minutes. To the clarified supernatant, 1.0% streptomycin sulfate was added, and the suspension was gently mixed for 15 minutes at 4° C. and then clarified by centrifugation at 12,000×g for 20 minutes. The supernatant was heated at 60° C. for 20 min, and centrifuged again at 12,000×g for 20 minutes. […]
acceptance as a substrate [1],Structure (SMILES),Km [2] [µM],kcat [2] [S^−1]
did not accept histidine as a substrate,N[C@@H](Cc1c[nH]cn1)C(=O)O [histidine],–,–
–,N[C@@H](Cc1ccccc1)C(=O)O [phenylalanine],161,3.3
–,N[C@@H](Cc1ccc(O)cc1)C(=O)O [tyrosine],44,1.3
